Test results published in patent US20260053834A1, “COVALENT MODIFIERS OF AKT1 AND USES THEREOF” (Terremoto Biosciences, Inc., priority 2023, published 2026).

Assays:
[1] = biological target: T1, AKT2 (Homo sapiens, UniProt P31751); experiment: Live cell target engagement by NanoBRET competitive probe displacement, AKT2; format: binding; conditions: transfected HEK293 cells, 2 h at 37° C., read-out: AKT2 IC50: GeoMean IC50
T1 construct: expressed in transfected cells; host or cells: HEK293

[2] = test system: LAPC4 prostate cancer cells, which express the AKT1 E17K allele; experiment: Antiproliferative effects in LAPC4 cells (CellTiter Glo, 72 h); format: cell-based; conditions: Homo sapiens, LAPC4, 72 h, read-out: LAPC4 proliferation IC50: GeoMean IC50
In short: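 Cells grown in IMDM with 12% FBS, seeded at 1,000 cells/well and treated with compound dilutions in DMSO for 72 h. Intracellular ATP read by luminescence. IC50 from a log(inhibitor) vs. response Hill fit.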

[3] = biological target: T2, AKT1 WT (Homo sapiens, UniProt P31749); experiment: Live cell target engagement by NanoBRET competitive probe displacement, AKT1 WT; format: binding; conditions: transfected HEK293 cells, 2 h at 37° C., read-out: AKT1 WT IC50: GeoMean IC50
T2 construct: expressed in transfected cells; host or cells: HEK293

[4] = biological target: T3, AKT1 E17K (Homo sapiens, UniProt P31749, E17K); experiment: Live cell target engagement by NanoBRET competitive probe displacement, AKT1 E17K; format: binding; conditions: transfected HEK293 cells, 2 h at 37° C., read-out: AKT1 E17K IC50: GeoMean IC50
T3 construct: expressed in transfected cells; host or cells: HEK293
T3 sequence (P31749 whole entry E17K): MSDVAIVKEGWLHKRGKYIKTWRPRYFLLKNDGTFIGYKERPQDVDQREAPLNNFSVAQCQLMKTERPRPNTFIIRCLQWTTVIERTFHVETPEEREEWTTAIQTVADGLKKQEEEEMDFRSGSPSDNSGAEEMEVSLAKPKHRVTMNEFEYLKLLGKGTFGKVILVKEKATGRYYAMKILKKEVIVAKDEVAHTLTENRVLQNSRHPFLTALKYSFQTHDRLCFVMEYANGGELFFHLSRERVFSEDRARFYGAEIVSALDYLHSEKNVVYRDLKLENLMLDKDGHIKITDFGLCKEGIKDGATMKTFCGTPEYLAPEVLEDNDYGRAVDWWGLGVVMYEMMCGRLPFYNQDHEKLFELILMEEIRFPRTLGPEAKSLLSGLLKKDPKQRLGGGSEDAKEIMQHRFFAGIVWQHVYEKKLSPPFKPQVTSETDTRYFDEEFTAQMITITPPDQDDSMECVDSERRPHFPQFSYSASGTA

T1 sequence (P31751 whole entry): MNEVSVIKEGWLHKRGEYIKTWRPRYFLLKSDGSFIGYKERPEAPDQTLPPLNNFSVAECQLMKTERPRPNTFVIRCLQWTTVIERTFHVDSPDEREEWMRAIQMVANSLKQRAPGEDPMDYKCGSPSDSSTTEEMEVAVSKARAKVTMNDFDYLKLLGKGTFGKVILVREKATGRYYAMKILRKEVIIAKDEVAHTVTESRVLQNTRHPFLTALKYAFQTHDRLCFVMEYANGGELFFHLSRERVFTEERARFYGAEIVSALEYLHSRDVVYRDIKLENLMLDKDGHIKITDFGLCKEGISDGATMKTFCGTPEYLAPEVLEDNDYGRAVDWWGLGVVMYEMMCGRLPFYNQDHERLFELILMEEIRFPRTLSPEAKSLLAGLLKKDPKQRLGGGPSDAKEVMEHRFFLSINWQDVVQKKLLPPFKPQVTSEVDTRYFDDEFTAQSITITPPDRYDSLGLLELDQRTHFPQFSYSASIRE
T2 sequence (P31749 whole entry): as the sequence (P31749 whole entry E17K) above, with K17E counted along it

| IC50 [1] [nM] | IC50 [2] [nM] | IC50 [3] [nM] | IC50 [4] [nM] | Compound |
| --- | --- | --- | --- | --- |
| 100 to 2000 | 100 to 2000 | 10 to 100 | 10 to 100 | Nc1ncccc1-c1nc2ccc(-c3ccn(C4COC4)n3)nc2n1-c1ccc2c(c1)CC[C@@H]2NC(=O)c1ccc(O)c(C=O)c1 [Example 171, N-[(1S)-5-[2-(2-aminopyridin-3-yl)-5-[1-(oxetan-3-yl)pyrazol-3-yl]imidazo[4,5-b]pyridin-3-yl]-2,3-dihydro-1H-inden-1-yl]-3-formyl-4-hydroxybenzamide] |
| 100 to 2000 | 10 to 100 | 10 to 100 | 10 to 100 | Nc1ncccc1-c1nc2ccc(-n3ncc4cccnc43)nc2n1-c1ccc2c(c1)CC[C@@H]2NC(=O)c1cc(C=O)c(O)c(F)c1F [Example 172, (S)—N-(5-(2-(2-aminopyridin-3-yl)-5-(1H-pyrazolo[3,4-b]pyridin-1-yl)-3H-imidazo[4,5-b]pyridin-3-yl)-2,3-dihydro-1H-inden-1-yl)-2,3-difluoro-5-formyl-4-hydroxybenzamide] |
| 100 to 2000 | 100 to 2000 | 10 to 100 | 10 to 100 | Cc1nc(-c2ccc3nc(-c4cccnc4N)n(-c4ccc5c(c4)CC[C@@H]5NC(=O)c4ccc(O)c(C=O)c4)c3n2)no1 [Example 173, N-[(1S)-5-[2-(2-aminopyridin-3-yl)-5-(5-methyl-1,2,4-oxadiazol-3-yl)imidazo[4,5-b]pyridin-3-yl]-2,3-dihydro-1H-inden-1-yl]-3-formyl-4-hydroxybenzamide] |
| 100 to 2000 | 100 to 2000 | 10 to 100 | 10 to 100 | Cc1cnc(-c2ccc3nc(-c4cccnc4N)n(-c4ccc5c(c4)CC[C@@H]5NC(=O)c4ccc(O)c(C=O)c4)c3n2)o1 [Example 174, N-[(1S)-5-[2-(2-aminopyridin-3-yl)-5-(5-methyl-1,3-oxazol-2-yl)imidazo[4,5-b]pyridin-3-yl]-2,3-dihydro-1H-inden-1-yl]-3-formyl-4-hydroxybenzamide] |
| 10 to 100 | < 10 | < 10 | < 10 | CN(C)c1nc2cc(C(=O)N[C@H]3CCc4cc(-n5c(-c6cccnc6N)nc6ccc(-n7cccn7)nc65)ccc43)cc(C=O)c2[nH]1 [Example 175, (S)—N-(5-(2-(2-aminopyridin-3-yl)-5-(1H-pyrazol-1-yl)-3H-imidazo[4,5-b]pyridin-3-yl)-2,3-dihydro-1H-inden-1-yl)-2-(dimethylamino)-7-formyl-1H-benzo[d]imidazole-5-carboxamide] |
| 100 to 2000 | 100 to 2000 | 100 to 2000 | 10 to 100 | Nc1ncccc1-c1nc2ccc(-c3ccccc3)nc2n1-c1ccc2c(c1)CC[C@@H]2NC(=O)c1cc(C=O)c(O)c(Cl)n1 [Example 176, (S)—N-(5-(2-(2-aminopyridin-3-yl)-5-phenyl-3H-imidazo[4,5-b]pyridin-3-yl)-2,3-dihydro-1H-inden-1-yl)-6-chloro-4-formyl-5-hydroxypicolinamide] |
| 100 to 2000 | ≥ 2000 | ≥ 2000 | ≥ 2000 | Nc1ncccc1-c1nc2ccc(-n3cccn3)nc2n1-c1ccc2c(c1)CC[C@@H]2N1CCc2cc(O)c(C=O)cc2C1=O [Example 177, 2-[(1S)-5-[2-(2-aminopyridin-3-yl)-5-(pyrazol-1-yl)imidazo[4,5-b]pyridin-3-yl]-2,3-dihydro-1H-inden-1-yl]-6-hydroxy-1-oxo-3,4-dihydroisoquinoline-7-carbaldehyde] |
| 100 to 2000 | 10 to 100 | 10 to 100 | 10 to 100 | Cc1coc(-c2ccc3nc(-c4cccnc4N)n(-c4ccc5c(c4)CC[C@@H]5NC(=O)c4ccc(O)c(C=O)c4)c3n2)n1 [Example 178, N-[(1S)-5-[2-(2-aminopyridin-3-yl)-5-(4-methyl-1,3-oxazol-2-yl)imidazo[4,5-b]pyridin-3-yl]-2,3-dihydro-1H-inden-1-yl]-3-formyl-4-hydroxybenzamide] |
| 100 to 2000 | 100 to 2000 | 10 to 100 | 10 to 100 | Cc1noc(-c2ccc3nc(-c4cccnc4N)n(-c4ccc5c(c4)CC[C@@H]5NC(=O)c4ccc(O)c(C=O)c4)c3n2)n1 [Example 179, N-[(1S)-5-[2-(2-aminopyridin-3-yl)-5-(3-methyl-1,2,4-oxadiazol-5-yl)imidazo[4,5-b]pyridin-3-yl]-2,3-dihydro-1H-inden-1-yl]-3-formyl-4-hydroxybenzamide] |
| 10 to 100 | 10 to 100 | 10 to 100 | 10 to 100 | Cc1cc(-c2nccs2)nc2c1nc(-c1cccnc1N)n2-c1ccc2c(c1)CC[C@@H]2NC(=O)c1ccc(O)c(C=O)c1 [Example 180, N-[(1S)-5-[2-(2-aminopyridin-3-yl)-7-methyl-5-(1,3-thiazol-2-yl)imidazo[4,5-b]pyridin-3-yl]-2,3-dihydro-1H-inden-1-yl]-3-formyl-4-hydroxybenzamide] |
| 100 to 2000 | 100 to 2000 | 10 to 100 | 10 to 100 | Cc1cc(-n2ccc(F)n2)nc2c1nc(-c1cccnc1N)n2-c1ccc2c(c1)CC[C@@H]2NC(=O)c1ccc(O)c(C=O)c1 [Example 181, (S)—N-(5-(2-(2-aminopyridin-3-yl)-5-(3-fluoro-1H-pyrazol-1-yl)-7-methyl-3H-imidazo[4,5-b]pyridin-3-yl)-2,3-dihydro-1H-inden-1-yl)-3-formyl-4-hydroxybenzamide] |
| 100 to 2000 | 100 to 2000 | 10 to 100 | 10 to 100 | COc1cc(C(=O)N[C@H]2CCc3cc(-n4c(-c5cccnc5N)nc5ccc(-n6cccn6)nc54)ccc32)cc(C=O)c1O [Example 182, N-[(1S)-5-[2-(2-aminopyridin-3-yl)-5-(pyrazol-1-yl)imidazo[4,5-b]pyridin-3-yl]-2,3-dihydro-1H-inden-1-yl]-3-formyl-4-hydroxy-5-methoxybenzamide] |
| 100 to 2000 | 100 to 2000 | 10 to 100 | 10 to 100 | [2H]C(=O)c1cc(C(=O)N[C@H]2CCc3cc(-n4c(-c5cccnc5N)nc5c(C)cc(-n6cccn6)nc54)ccc32)ccc1O [Example 183, (S)—N-(5-(2-(2-aminopyridin-3-yl)-7-methyl-5-(1H-pyrazol-1-yl)-3H-imidazo[4,5-b]pyridin-3-yl)-2,3-dihydro-1H-inden-1-yl)-3-(formyl-d)-4-hydroxybenzamide] |
| 100 to 2000 | 10 to 100 | 10 to 100 | 10 to 100 | Nc1ncccc1-c1nc2ccc(-n3cccn3)nc2n1-c1ccc2c(c1)CC[C@@H]2n1cnc2cc(O)c(C=O)cc2c1=O [Example 184, 3-[(1S)-5-[2-(2-aminopyridin-3-yl)-5-(pyrazol-1-yl)imidazo[4,5-b]pyridin-3-yl]-2,3-dihydro-1H-inden-1-yl]-7-hydroxy-4-oxoquinazoline-6-carbaldehyde] |
| 100 to 2000 | 10 to 100 | 10 to 100 | 10 to 100 | Cc1cnc(-c2ccc3nc(-c4cccnc4N)n(-c4ccc5c(c4)CC[C@@H]5NC(=O)c4cc(C=O)c(O)cc4F)c3n2)s1 [Example 185, N-[(1S)-5-[2-(2-aminopyridin-3-yl)-5-(5-methyl-1,3-thiazol-2-yl)imidazo[4,5-b]pyridin-3-yl]-2,3-dihydro-1H-inden-1-yl]-2-fluoro-5-formyl-4-hydroxybenzamide] |
| 100 to 2000 | 10 to 100 | 10 to 100 | 10 to 100 | Cc1cnc(-c2ccc3nc(-c4cccnc4N)n(-c4ccc5c(c4)CC[C@@H]5NC(=O)c4cc(C=O)c(O)c(F)c4F)c3n2)s1 [Example 186, N-[(1S)-5-[2-(2-aminopyridin-3-yl)-5-(5-methyl-1,3-thiazol-2-yl)imidazo[4,5-b]pyridin-3-yl]-2,3-dihydro-1H-inden-1-yl]-2,3-difluoro-5-formyl-4-hydroxybenzamide] |
| ≥ 2000 | ≥ 2000 | 100 to 2000 | 100 to 2000 | Nc1ncccc1-c1nc2ccc(-n3cccn3)nc2n1-c1cc(F)c2c(c1)CC[C@@H]2NC(=O)c1ccc(O)c(C=O)c1 [Example 189, N-[(1S)-5-[2-(2-aminopyridin-3-yl)-5-(pyrazol-1-yl)imidazo[4,5-b]pyridin-3-yl]-7-fluoro-2,3-dihydro-1H-inden-1-yl]-3-formyl-4-hydroxybenzamide] |
| 100 to 2000 | 100 to 2000 | 100 to 2000 | 10 to 100 | [2H]C(=O)c1cc(C(=O)N[C@H]2CCc3cc(-n4c(-c5cccnc5N)nc5ccc(-n6ccc(F)n6)nc54)ccc32)ccc1O [Example 190, (S)—N-(5-(2-(2-aminopyridin-3-yl)-5-(3-fluoro-1H-pyrazol-1-yl)-3H-imidazo[4,5-b]pyridin-3-yl)-2,3-dihydro-1-H-inden-1-yl)-3-(formyl-d)-4-hydroxybenzamide] |
| ≥ 2000 | ≥ 2000 | 100 to 2000 | 100 to 2000 | CN(C)Cc1cc(C(=O)N[C@H]2CCc3cc(-n4c(-c5cccnc5N)nc5ccc(-n6cccn6)nc54)ccc32)cc(C=O)c1O [Example 192, N-[(1S)-5-[2-(2-aminopyridin-3-yl)-5-(pyrazol-1-yl)imidazo[4,5-b]pyridin-3-yl]-2,3-dihydro-1H-inden-1-yl]-3-[(dimethylamino)methyl]-5-formyl-4-hydroxybenzamide] |
